Key:
[1] = test system: Chinese females, 25-55 years old with hyperpigmented spots; assay: 9-week randomized, double-blind, vehicle-controlled, split-face tone benefit study; type: in vivo, human; details: 0.05% in SC-99 vehicle, 2x a day, vs vehicle
Text: This Example provides evidence of the advantages of using composite signatures and illustrates clinical affirmation of the C-map model for predicting efficacy of skin-lightening agents. This Example supports embodiments related to composite signatures (as described at the end of Example 3). An illustrative “Skin Tone” Signature developed from a genomics study using a composite skin-lightening benchmark agent signature is derived from Niacinamide, Hexamidine, Sepiwhite, and NAG. The signature is used to query C-map and generate a list of potential skin-lightening agents. A top hit, Chlorhexidine Diactate (CD) is entered into clinical testing for confirmation of efficacy. The control for clinical efficacy is a 5% Niacinamide+1% Sepiwhite formulation in the control vehicle.
Primary endpoints are changes in color spot area fraction (image analysis) and melanin spot area fraction (NC2) from baseline. Secondary endpoints are changes from baseline in L*a*b (color image analysis), mean melanin gray scale (NC2), and melanin evenness (NC2). Texture area fraction and pore area fraction are also evaluated to explore impact on other aspects relating to overall skin tone. […] Statistically significant superiority to the high efficacy benchmark skin active agent to vehicle performance is the clinical success criteria.
Study Design: The experimental protocol included a 9-week (1-week preconditioning & 8-week treatment), randomized, double-blind, round robin, vehicle-controlled, split-face tone benefit study. The subject population included 330 Chinese females, 25-55 years old with hyperpigmented spots. 318 subjects completed the entire study. […] Olay Complete SPF 15 UV Moisturizing Lotion is concomitantly used during pre-conditioning and treatment. 0.5 g each test product per half-face (forehead to jaw line; ˜4 mg/cm^2) is dosed 2× a day (morning/evening). Color SAF and treatment area, Melanin SAF, gray scale, evenness by NC2, and additional measurement of Fine Lines and Wrinkle and Texture are by REAL 3.01A. Data collection points include baseline, and ends of weeks 4, 6 and 8. The tested hypothesis is that there is no difference in clinical endpoint versus the benchmark composition treatment. Study site is Kuntai Clinical Center, Beijing, China and study time frame is February 2010 (pre-conditioning) to April 2010.

[2] = test system: tert-Keratinocyte (tKC) cells; assay: C-map query with the tone composite benchmark signature (Niacinamide, Hexamidine, Sepiwhite, NAG); type: cell-based, human; details: composite signature of Example 3
Description: Individual experiments (referred to as batches) generally comprise 30 to 96 samples analyzed using Affymetrix GeneChip® technology platforms, containing 6 replicates of the vehicle control (e.g., DSMO), 2 replicate samples of a positive control that gives a strong reproducible effect in the cell type used, and samples of the test material/perturbagen. Replication of the test material is done in separate batches due to batch effects. In vitro testing was performed in 6-well plates to provide sufficient RNA for GeneChip® analysis (2-4 μg total RNA yield/well).
Human telomerized keratinocytes (tKC) were obtained from the University of Texas, Southwestern Medical Center, Dallas, Tex. tKC cells were grown in EpiLife® media with 1× Human Keratinocyte Growth Supplement (Invitrogen, Carlsbad, Calif.) on collagen I coated cell culture flasks and plates (Becton Dickinson, Franklin Lakes, N.J.). Keratinocytes were seeded into 6-well plates at 20,000 cells/cm^2 24 hours before chemical exposure. Human skin fibroblasts (BJ cell line from ATCC, Manassas, Va.) were grown in Eagle's Minimal Essential Medium (ATCC) supplemented with 10% fetal bovine serum (HyClone, Logan, Utah) in normal cell culture flasks and plates (Corning, Lowell, Mass.). BJ fibroblasts were seeded into 6-well plates at 12,000 cells/cm^2 24 hours before chemical exposure. […]

SMILES: CC(=O)O.CC(=O)O.NC(=N\CCCCCC/N=C(N)/N=C(\N)Nc1ccc(Cl)cc1)/N=C(\N)Nc1ccc(Cl)cc1 [CD, Chlorhexidine Diacetate]
- Basal skin tone ([1]; week 8): demonstrated superiority
- Pore area fraction ([1]; week 8): superior efficacy
- Texture area fraction ([1]; week 8): superior efficacy
- NC2 Melanin evenness test ([1]; weeks 6 and 8): superiority to the vehicle
- spot area fraction NC2 test ([1]; weeks 6 and 8): significantly reduced fraction when compared to the vehicle
- connectivity to the tone composite benchmark signature query [2]: top connectivity hit

From US10468120B2, “Method of generating a hyperpigmentation condition gene expression signature” (The Procter & Gamble Company, priority 2012, dated 2019)
